Test results from ChEMBL document CHEMBL1201862, “PubChem BioAssay data set” (2004).
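A five-concentration, 48-hour dose response in 96-well plates underlies each endpoint, interpolated linearly between surrounding concentrations. GI50 is the concentration that inhibits growth by half.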 Activity calls are given as the source filed them. Rule as the data show it: active = GI50 up to about 1.1 µM and inactive = higher.

Key:
Assay in all cases: NCI tumour cell line growth inhibition, 48 h
[1] = system: 786-0
[2] = system: PC-3
[3] = system: U-251
[4] = system: NCI-H460
[5] = system: Malme-3M
[6] = system: HL-60
[7] = system: SF-268
[8] = system: A549
[9] = system: UACC-257
[10] = system: HT-29
[11] = system: SK-OV-3
[12] = system: CAKI-1
[13] = system: EKVX
[14] = system: HCC 2998
[15] = system: BT-549
[16] = system: MOLT-4
[17] = system: M14
[18] = system: OVCAR-4
[19] = system: MDA-MB-231
[20] = system: SF-539
[21] = system: DU-145
[22] = system: SNB-19
[23] = system: SW-620
[24] = system: HOP-92
[25] = system: MCF7
[26] = system: RPMI-8226
[27] = system: SF-295
[28] = system: ACHN
[29] = system: KM12
[30] = system: SR
[31] = system: MDA-N
[32] = system: Hs-578T
[33] = system: COLO 205
[34] = system: SN12C
[35] = system: SK-MEL-5
[36] = system: UO-31
[37] = system: K562
[38] = system: NCI-H522
[39] = system: RXF 393
[40] = system: UACC-62
[41] = system: OVCAR-3
[42] = system: TK-10
[43] = system: HCT-15
[44] = system: NCI-H23
[45] = system: LOX IMVI
[46] = system: SK-MEL-2
[47] = system: HOP-62
[48] = system: SK-MEL-28
[49] = system: NCI-H226
[50] = system: CCRF-CEM
[51] = system: IGROV-1
[52] = system: MDA-MB-435
[53] = system: A498
[54] = system: HCT-116
[55] = system: NCI/ADR-RES
[56] = system: SNB-75
[57] = system: T47D

Measured: GI50

CCOC(=O)C1=C(Cl)c2cccnc2C1=O
inactive: [1] 44 µM | [2] > 100 µM | [3] 35.6 µM | [4] > 100 µM | [5] 31.3 µM | [6] > 100 µM | [7] 55.2 µM | [8] 55.7 µM | [9] 39.7 µM | [10] 81.7 µM | [11] > 100 µM | [12] 54.6 µM | [13] 62.5 µM | [14] 61.7 µM | [15] 45.4 µM | [16] 34 µM | [17] 54.2 µM | [18] > 100 µM | [19] > 100 µM | [20] 82.6 µM | [21] 21.5 µM | [22] 53 µM | [23] 30.3 µM | [24] > 100 µM | [25] 38.5 µM | [26] 87.3 µM | [27] 39.4 µM | [28] 35.4 µM | [29] > 100 µM | [30] 11.4 µM | [31] 34.9 µM | [32] 27.7 µM | [33] 43.4 µM | [34] 52.4 µM | [35] 53.6 µM | [36] > 100 µM | [37] 54.7 µM | [38] 86.5 µM | [39] > 100 µM | [40] > 100 µM | [41] 19.8 µM | [42] > 100 µM | [44] 16.4 µM | [45] 23.7 µM | [46] > 100 µM | [47] 32.2 µM | [48] > 100 µM | [49] > 100 µM | [50] 26.4 µM | [51] 52.8 µM | [52] 28 µM | [53] > 100 µM | [54] 27.4 µM | [55] > 100 µM | [56] 13 µM
53.7 µM: [43]

C=CCN1C(=O)CS/C1=N/NC(=O)C(O)(c1ccccc1)c1ccccc1
inactive: [1] > 10 µM | [3] > 10 µM | [4] > 10 µM | [5] > 10 µM | [6] > 10 µM | [7] > 10 µM | [8] > 10 µM | [11] > 10 µM | [12] > 10 µM | [16] > 10 µM | [17] > 10 µM | [18] > 10 µM | [23] > 10 µM | [24] > 10 µM | [25] > 10 µM | [26] > 10 µM | [28] > 10 µM | [30] > 10 µM | [33] > 10 µM | [35] > 10 µM | [37] > 10 µM | [39] > 10 µM | [40] > 10 µM | [44] > 10 µM | [46] > 10 µM | [47] > 10 µM | [48] > 10 µM | [50] > 10 µM | [51] > 10 µM | [57] > 10 µM | [52] > 10 µM | [55] > 10 µM | [56] > 10 µM
